Source: US12570697B2, “Cyclic peptide useful in the treatment of cancer” (Syntherix Limited, priority 2019, dated 2026)
Entries after “also recorded” stand apart in the source; their conditions may differ. Square brackets hold non-standard residues; d marks the D form. Sar = CNCC(=O)O

Tests used:
NCI-H460 cells = assay: viability assay of CLIP cyclised peptides on NCI-H460 cells (Example 3, Table 2); type: cell-based, human; conditions: for % inhibition at 300 μM / IC50: 96 h; for IC50: values in brackets approximate; for cytotoxic activity against NCIH460 cells (in words): with and without Nanocin-PRO
Procedure: The following protocol was used: • 1) NCI-H460 cells were grown in Ham's F12 media supplemented with 10% FBS. • 2) Cells were harvested and seeded into 96-well plates at 500 cells per well. • 3) Peptides were diluted 1:2 from DMSO stock solutions to generate a 9-point dose range from a top concentration of 300 μM. Final DMSO concentration was constant at 1% (v/v). • 4) In line with the supplied Nanocin-PRO protocol, diluted peptides were incubated with Nanocin-PRO in media for 20 minutes prior to addition to cells. Nanocin-PRO was used at a final assay concentration of 0.2 μl per well. • 5) Cells were grown in the presence of peptide for 96 hours at 37° C., 5% CO2 in a humidified atmosphere. • 6) After 96 h, Alamar blue 10% (v/v) was added, incubated for a further 4 h and fluorescent product detected using a BMG FLUOstar plate reader. • 7) Media only background readings were subtracted before data was analysed using a 4-parameter logistic equation in GraphPad Prism.
Viability assays of the CLIP cyclised peptides were performed to examine the effect of four HILRa clipped peptides on the viability of NCIH460 cells (up to three isomers for each of the peptides). […] Results for HILRa 16A, 16B, 16C and HILRa 17A, 17B and 17C are depicted in FIG. 2.
Assays were performed in the presence and absence of the peptide transfection reagent Nanocin-PRO.

[1] = tested on: human non-small cell lung cancer cells (NCIH-460); assay: killing of NCIH-460 cells by CLIPS-cyclised peptides of different warhead length (Table 1); type: cell-based
Procedure: The inventor undertook testing of the effect of various peptides which were cyclised using CLIPS technology on the killing of human non-small cell lung cancer cells (NCIH-460) in vitro. For each of the peptides, between two and four isomer fractions were received, giving a total of 12 peptide entities tested.
The following warhead lengths, obtained by adding flanking sarcosine residues, were tested: […]

COc1ccc2c(C[C@@H]3NC(=O)[C@@H](NC(C)=O)CSCc4cccc(c4)CSC[C@@H](C(N)=O)NC(=O)CC(c4ccc5ccccc5c4)NC(=O)[C@H](CCCNC(=N)N)NC(=O)C4N(CCC4(C)C)C(=O)CN(C)C(=O)[C@H](CCCNC(=N)N)NC3=O)cc(=O)oc2c1 (single isomer, unassigned) [HILRa CL-15-A, Ac-C[Dac]R[Sar][dmPro]R[Nap]C-NH2]
% inhibition at 300 μM (NCI-H460 cells; 0.2 μl Nanocin-PRO per well): 84.5% | % inhibition at 300 μM (NCI-H460 cells; No Nanocin-PRO): 22.7%

COc1ccc2c(C[C@@H]3NC(=O)[C@@H](NC(C)=O)CSCc4cccc(c4)CSC[C@@H](C(N)=O)NC(=O)CC(c4ccc5ccccc5c4)NC(=O)[C@H](CCCNC(=N)N)NC(=O)C4N(CCC4(C)C)C(=O)CN(C)C(=O)[C@H](CCCNC(=N)N)NC3=O)cc(=O)oc2c1 (single isomer, unassigned) [HILRa CL-15-B, Ac-C[Dac]R[Sar][dmPro]R[Nap]C-NH2]
% inhibition at 300 μM (NCI-H460 cells; 0.2 μl Nanocin-PRO per well): 87.5% | % inhibition at 300 μM (NCI-H460 cells; No Nanocin-PRO): 20.2%

COc1ccc2c(C[C@@H]3NC(=O)[C@@H](NC(C)=O)CSCc4cccc(c4)CSC[C@@H](C(N)=O)NC(=O)CC(c4ccc5ccccc5c4)NC(=O)[C@H](CCCNC(=N)N)NC(=O)C4N(CCC4(C)C)C(=O)CN(C)C(=O)[C@H](CCCNC(=N)N)NC3=O)cc(=O)oc2c1 (single isomer, unassigned) [HILRa CL-15-C, Ac-C[Dac]R[Sar][dmPro]R[Nap]C-NH2]
% inhibition at 300 μM (NCI-H460 cells; 0.2 μl Nanocin-PRO per well): 88.5% | % inhibition at 300 μM (NCI-H460 cells; No Nanocin-PRO): 23.8%

COc1ccc2c(C[C@@H]3NC(=O)[C@@H](NC(C)=O)CSCc4cccc(c4)CSC[C@@H](C(N)=O)NC(=O)CC(c4ccc5ccccc5c4)NC(=O)[C@H](CCCNC(=N)N)NC(=O)C4N(CCC4(C)C)C(=O)CN(C)C(=O)[C@H](CCCNC(=N)N)NC3=O)cc(=O)oc2c1 (single isomer, unassigned) [HILRa CL-15-D, Ac-C[Dac]R[Sar][dmPro]R[Nap]C-NH2]
% inhibition at 300 μM (NCI-H460 cells; 0.2 μl Nanocin-PRO per well): 89.1% | % inhibition at 300 μM (NCI-H460 cells; No Nanocin-PRO): 25.2%

COc1ccc2c(C[C@@H]3NC(=O)[C@@H](NC(C)=O)CSCc4cccc(c4)CSC[C@@H](C(N)=O)NC(=O)CC(c4ccc5ccccc5c4)NC(=O)[C@H](CCCNC(=N)N)NC(=O)CC(c4ccc5ccccc5c4)NC(=O)CN(C)C(=O)[C@H](CCCNC(=N)N)NC3=O)cc(=O)oc2c1 (single isomer, unassigned) [HILRa CL-17-A, Ac-C[Dac]R[Sar][Nap]R[Nap]C-NH2]
% inhibition at 300 μM (NCI-H460 cells; 0.2 μl Nanocin-PRO per well): 98.7% | % inhibition at 300 μM (NCI-H460 cells; No Nanocin-PRO): 90.3%

COc1ccc2c(C[C@@H]3NC(=O)[C@@H](NC(C)=O)CSCc4cccc(c4)CSC[C@@H](C(N)=O)NC(=O)CC(c4ccc5ccccc5c4)NC(=O)[C@H](CCCNC(=N)N)NC(=O)CC(c4ccc5ccccc5c4)NC(=O)CN(C)C(=O)[C@H](CCCNC(=N)N)NC3=O)cc(=O)oc2c1 (single isomer, unassigned) [HILRa CL-17-B, Ac-C[Dac]R[Sar][Nap]R[Nap]C-NH2]
% inhibition at 300 μM (NCI-H460 cells; 0.2 μl Nanocin-PRO per well): 99.3% | IC50 (NCI-H460 cells; 0.2 μl Nanocin-PRO per well): ~2100 nM | % inhibition at 300 μM (NCI-H460 cells; No Nanocin-PRO): 99.2%

COc1ccc2c(C[C@@H]3NC(=O)[C@@H](NC(C)=O)CSCc4cccc(c4)CSC[C@@H](C(N)=O)NC(=O)CC(c4ccc5ccccc5c4)NC(=O)[C@H](CCCNC(=N)N)NC(=O)CC(c4ccc5ccccc5c4)NC(=O)CN(C)C(=O)[C@H](CCCNC(=N)N)NC3=O)cc(=O)oc2c1 (single isomer, unassigned) [HILRa CL-17-C, Ac-C[Dac]R[Sar][Nap]R[Nap]C-NH2]
% inhibition at 300 μM (NCI-H460 cells; 0.2 μl Nanocin-PRO per well): 99.4% | IC50 (NCI-H460 cells; 0.2 μl Nanocin-PRO per well): ~880 nM | % inhibition at 300 μM (NCI-H460 cells; No Nanocin-PRO): 99.6%

Ac-CDacHcaSarNapHcaNapC-NH2 [HILRa CL-16-A]
% inhibition at 300 μM (NCI-H460 cells; 0.2 μl Nanocin-PRO per well): 0.0% | % inhibition at 300 μM (NCI-H460 cells; No Nanocin-PRO): 9.9% | cytotoxic activity against NCIH460 cells (in words) (NCI-H460 cells): completely removed the cell killing effect; also recorded: low detectable cancer cell-necrotic activity

Ac-CDacHcaSarNapHcaNapC-NH2 [HILRa CL-16-B]
% inhibition at 300 μM (NCI-H460 cells; 0.2 μl Nanocin-PRO per well): 0.0% | % inhibition at 300 μM (NCI-H460 cells; No Nanocin-PRO): 14.1% | cytotoxic activity against NCIH460 cells (in words) (NCI-H460 cells): completely removed the cell killing effect; also recorded: low detectable cancer cell-necrotic activity

Ac-CDacHcaSarNapHcaNapC-NH2 [HILRa CL-16-C]
% inhibition at 300 μM (NCI-H460 cells; 0.2 μl Nanocin-PRO per well): 0.5% | % inhibition at 300 μM (NCI-H460 cells; No Nanocin-PRO): 26.9% | cytotoxic activity against NCIH460 cells (in words) (NCI-H460 cells): completely removed the cell killing effect; also recorded: low detectable cancer cell-necrotic activity

Ac-CDacHcaSarNapHcaNapC-NH2 [HILRa-CL-16]
cytotoxic activity against NCIH460 cells (in words) (NCI-H460 cells): negligible activity

Ac-CDacHcaSarProHcaNapC-NH2 [HILRa CL-14-A]
% inhibition at 300 μM (NCI-H460 cells; 0.2 μl Nanocin-PRO per well): 9.9% | % inhibition at 300 μM (NCI-H460 cells; No Nanocin-PRO): 10.5% | cytotoxic activity against NCIH460 cells (in words) (NCI-H460 cells): low detectable cancer cell-necrotic activity

Ac-CDacHcaSarProHcaNapC-NH2 [HILRa CL-14-B]
% inhibition at 300 μM (NCI-H460 cells; 0.2 μl Nanocin-PRO per well): 6.8% | % inhibition at 300 μM (NCI-H460 cells; No Nanocin-PRO): 5.8% | cytotoxic activity against NCIH460 cells (in words) (NCI-H460 cells): low detectable cancer cell-necrotic activity

Ac-CDacHcaSarProHcaNapC-NH2 [HILRa-CL-14]
cytotoxic activity against NCIH460 cells (in words) (NCI-H460 cells): negligible activity

Ac-CPKGPKPC-NH2 [HILRa-CL-10]
% inhibition at 1 mM ([1]; 0.2 μl Nanocin-PRO per well): 0.8% | % inhibition at 1 mM ([1]; No Nanocin-PRO): 2.2%

Ac-CPKGPRPC-NH2 [HILRa-CL-04]
% inhibition at 1 mM ([1]; 0.2 μl Nanocin-PRO per well): 8.5% | % inhibition at 1 mM ([1]; No Nanocin-PRO): 0.0%

Ac-CPRGPKPC-NH2 [HILRa-CL-07]
% inhibition at 1 mM ([1]; 0.2 μl Nanocin-PRO per well): 1.5% | % inhibition at 1 mM ([1]; No Nanocin-PRO): 0.0%

Ac-CPRGPRPC-NH2 [HILRa-CL-01, CLIPS-cyclised peptide]
% inhibition at 1 mM ([1]; 0.2 μl Nanocin-PRO per well): 12.9% | % inhibition at 1 mM ([1]; 0.2 μl Nanocin-PRO per well, listed as ‘clipped’ Pro-Arg-Gly-Pro-Arg-Pro warhead): over 10% | % inhibition at 1 mM ([1]; No Nanocin-PRO): 0.0%

Ac-C[Sar]PKGPKP[Sar]C-NH2 (CXPKGPKPXC; N-acetyl; C-amide; sarcosines; HILRa-CL-11 Synthesized; Sar (2)..(2) X = Sarcosine; Sar (9)..(9) X = Sarcosine)
% inhibition at 1 mM ([1]; 0.2 μl Nanocin-PRO per well): 1.2% | % inhibition at 1 mM ([1]; No Nanocin-PRO): 0.0%

Ac-C[Sar]PKGPRP[Sar]C-NH2 (CXPKGPRPXC; N-acetyl; C-amide; sarcosines; HILRa-CL-05 Synthesized; Sar (2)..(2) X = Sarcosine; Sar (9)..(9) X = Sarcosine)
% inhibition at 1 mM ([1]; 0.2 μl Nanocin-PRO per well): 1.1% | % inhibition at 1 mM ([1]; No Nanocin-PRO): 0.0%

Ac-C[Sar]PRGPKP[Sar]C-NH2 (CXPRGPKPXC; N-acetyl; C-amide; sarcosines; HILRa-CL-08 Synthesized; Sar (2)..(2) X = Sarcosine; Sar (9)..(9) X = Sarcosine)
% inhibition at 1 mM ([1]; 0.2 μl Nanocin-PRO per well): 3.2% | % inhibition at 1 mM ([1]; No Nanocin-PRO): 0.0%

Ac-C[Sar]PRGPRP[Sar]C-NH2 (CXPRGPRPXC; N-acetyl; C-amide; sarcosines; HILRa-CL-02 Synthesized; Sar (2)..(2) X = Sarcosine; Sar (9)..(9) X = Sarcosine)
% inhibition at 1 mM ([1]; 0.2 μl Nanocin-PRO per well): 2.0% | % inhibition at 1 mM ([1]; No Nanocin-PRO): 0.0%

Ac-C[Sar][Sar]PKGPKP[Sar][Sar]C-NH2 (CXXPKGPKPXXC; N-acetyl; C-amide; sarcosines; HILRa-CL-12 Synthesized; Sar (2)..(2) X = Sarcosine; Sar (3)..(3) X = Sarcosine; Sar (10)..(10) X = Sarcosine; Sar (11)..(11) X = Sarcosine)
% inhibition at 1 mM ([1]; 0.2 μl Nanocin-PRO per well): 0.8% | % inhibition at 1 mM ([1]; No Nanocin-PRO): 0.0%

Ac-C[Sar][Sar]PKGPRP[Sar][Sar]C-NH2 (CXXPKGPRPXXC; N-acetyl; C-amide; sarcosines; HILRa-CL-06 Synthesized; Sar (2)..(2) X = Sarcosine; Sar (3)..(3) X = Sarcosine; Sar (10)..(10) X = Sarcosine; Sar (11)..(11) X = Sarcosine)
% inhibition at 1 mM ([1]; 0.2 μl Nanocin-PRO per well): 6.1% | % inhibition at 1 mM ([1]; No Nanocin-PRO): 0.0%

Ac-C[Sar][Sar]PRGPKP[Sar][Sar]C-NH2 (cysteine pairing not given here) [HILRa-CL-09]
% inhibition at 1 mM ([1]; 0.2 μl Nanocin-PRO per well): 3.0% | % inhibition at 1 mM ([1]; No Nanocin-PRO): 1.1%

Ac-C[Sar][Sar]PRGPRP[Sar][Sar]C-NH2 (CXXPRGPRPXXC; N-acetyl; C-amide; sarcosines; HILRa-CL-03 Synthesized; Sar (2)..(2) X = Sarcosine; Sar (3)..(3) X = Sarcosine; Sar (10)..(10) X = Sarcosine; Sar (11)..(11) X = Sarcosine)
% inhibition at 1 mM ([1]; 0.2 μl Nanocin-PRO per well): 9.5% | % inhibition at 1 mM ([1]; No Nanocin-PRO): 0.0%
